From patent publication US10947202B2, “Sodium ion channel inhibitors and pharmaceutically acceptable salts and polymorphs thereof and uses thereof” (SHANGHAI HAIYAN PHARMACEUTICAL TECHNOLOGY CO., LTD., priority 2017, dated 2021)

Columns and labels:
hNav1.7 = hNav1.7 (Homo sapiens, UniProt Q15858); assay: Manual patch clamp experiment of hNav1.7 channel (CHO-hNav1.7 stable cell line); type: cell-based; settings: for inhibition at 0.1 µM: read-out: Inhibition of Nav1.7, 100 nM(%); for inhibition at 1 µM: read-out: Inhibition of Nav1.7, 1000 nM(%)
From the text: Patch voltage clamp electrophysiology allows for the direct measurement and quantification of current block of voltage-gated sodium channels (NaV's), and allows the determination of the time and voltage-dependence of block which has been interpreted as differential binding to the resting, open and inactivated states of the sodium channel to reflect the compound's inhibitory or activating effects (Hille, B., Journal of General Physiology (1977), 69: 497-515).
Representative compounds of the present disclosure were performed using a manual patch clamp experiment and the purpose of this study was to test the effect of compounds on this ion channel current on a stable cell line transfected with a specific ion channel using a manual patch clamp method, the used stable cell lines CHO-hNav1.7 and HEK-hNav1.5 were from Genionics and WuXi Apptec (Shanghai) respectively.
Manual patch clamp experimental program is as follows:
(1) Preparation of solutions and compounds: The whole cell patch clamp technique was used to record hNav1.7 and hNav1.5 currents. In the experiment, the composition of extracellular fluid (mM): HEPES: 5, NaCl: 40, KCl: CaCl2:1, MgCl2:1, CdCl2:0.1, TEA-Cl: 20. The pH was adjusted to 7.3 with NaOH and the osmotic pressure was adjusted to 310-320 mOsm with sucrose, filtered and stored at 4° C. The composition of the intracellular fluid (mM): HEPES: 10, NaCl: 10, CsOH: 5, CsF: 140, EGTA: 1. The pH was adjusted to 7.3 with CsOH and the osmotic pressure was adjusted to 280-290 mOsm with sucrose, filtered and stored at −20° C.
The positive control and the test compound were firstly dissolved in 100% DMSO (Sigma-Aldrich, D2650), configured as stock solution at a concentration (100 nM, 1000 nM).) The above stock solution was serially diluted with DMSO prior to the experiment, the solution was further diluted with extracellular solution to obtain the desired concentration of the test solution.
(2) Manual Patch Clamp Experiment: The cell suspension was added to a 35 mm petri dish and placed on an inverted microscope stage, the cells were perfused with an extracellular fluid and the flow rate was 1-2 mL/min after cell adherence. The glass microelectrode was pulled in two steps by a microelectrode puller with an inlet water resistance of 2-5 MΩ. A/D-D/A digital-analog conversion was performed by Digidata 1440 (Molecular Devices) and pCLAMP software (version 10.2, Molecular Devices) for stimulation and signal acquisition; the signal was amplified by patch clamp amplifier (Multiclamp 700B, Molecular Devices), filtering is 4 KHz.
Two different voltage stimulation procedures were used in the hNav1.7 and hNav1.5 manual patch clamp experiments.
One is the inactivation stimulation program, the clamp potential is set at V1/2 of the corresponding channel, ie about 50% of the channels are inactivated, then the voltage is applied to −120 mV for 50 ms, then depolarized to −10 mV for 20 ms leading to sodium current, and finally back to the clamp potential. This stimulation program can also be called channel state-dependent voltage stimulation program.
The other is the non-inactivation stimulation program, the clamp potential is maintained at −120 mV, voltage stimulation is given to −10 mV for 20 ms leading to sodium current, and finally back to the clamp potential. That is all channels have not experienced inactivation status, but activate directly from the resting state under the conditions of the stimulation program.
The time intervals of these two voltage stimulation program were 10 s. The inhibitory effect of the compound was calculated by the change of the current before and after dosing, the IC50 value was fitted by the Hill equation. […] The results are shown in Table 33 and Table 34, respectively.

[1] = Metabolism stability test in liver microsomes; type: in vitro ADME; settings: human liver microsomes
Description: Buffer A: 1 L solution of 100 mM potassium dihydrogen phosphate containing 1 mM EDTA (Sigma, V900157-100G) was prepared.
Buffer B: 1 L solution of 100 mM dipotassium hydrogen phosphate containing 1 mM EDTA was prepared.
Buffer C: 700 mL of buffer B was taken out and titrated with buffer A to pH 7.4.
2.1 10 μl of 10 mM compound to be tested and 10 μl of 10 mM ketanserin were taken out and 190 μl of pure acetonitrile was added to each of them to prepare 500 μM compound to be tested and ketanserin, respectively.
2.2 20 μl (20 mg/mL) of liver microsomes (Corning Lot. NO. 4133007) stock solution was added to 513.4 μl of buffer C on wet ice. 0.75 mg/mL liver microsomal solution was obtained.
2.3 1.5 μl of each of the above-mentioned compound to be tested and ketanserin solution was added to 498.5 μl of liver microsomal solution (0.7 5 mg/mL) respectively on wet ice. 1.5 μM mixed solution of compound to be tested and 1.5 μM mixed solution of ketanserin were obtained.
2.4 At the time points 0, 5, 15, 30, 45, and 60 min, 30 μl of the mixed solution of compound to be tested and 30 μl of the mixed solution of ketanserin were dispensed into the reaction plate on wet ice, respectively.
2.5 5 mg reduced coenzyme II (Roche, 10621706001) was weighed and dissolved in 1 mL of buffer C. 6 mM reduced coenzyme II solution was obtained. The reduced coenzyme II solution was dispensed into the reaction plate.
2.6 Imipramine was dissolved to give a 10 mM solution. 10 μl imipramine solution was added to 100 mL of blank acetonitrile to generate the internal reference.
2.7 At 0 min, 135 μL of iced acetonitrile (Merck (Lot. 1778229518)) containing the internal reference was added to each well and then 15 μL of buffer C was added.
2.8 The reaction plate was placed into a 37° C. water bath incubator for 5 min. In the reaction plate, 15 μL of reduced coenzyme II solution was added to each well to initiate the reaction, and the time keeping was started. At the time points of 5, 15, 30, 45, and 60 min, 135 μL of iced acetonitrile containing the internal reference was added to each well to terminate the reaction.
2.9 The reaction plate was sealed with an aluminum film, placed on a vibration mixer and shaken at 500 rpm for 5 min. The plate was then centrifuged in a centrifuge at 3750 rp for 15 min.
2.10 The sample was diluted with pure water in accordance with the ratio of 1:1 and detected by LC/MS. […]
Wherein, the K value and the proportional factor were calculated by those skilled in the art according to the methods described in the prior art and contained in the instructions of the liver microsome product.

[2] = Crystal form stability on shaking in solvent or heating (XRPD); type: physicochemical; settings: for crystal form after shaking of mixed forms: crystal forms III and IV mixed in ACE and MeOH, shaken at 50° C. for 1 day; for crystal form after heating: heated to 150° C.
Description: The reaction solution in the step 4 of Example 1 was poured into water, extracted with ethyl acetate, dried and concentrated, ethanol was added to dissolve and the solution was evaporated, 1N hydrochloric acid and ethyl acetate were added and stirred for 1-2 h, filtered, a solid product which was the crystal form III of free base was obtained, the X-ray powder diffraction pattern is shown in FIG. 11A (the 2θ angle has been marked), the DSC/TGA/DVS patterns are shown in FIGS. 11B, 11C and 11D. According to the DSC pattern, there is an inflection point around 100° C., and the sample has a melting absorption peak at 181.9° C. […] The sample was shaken in ACE and MeOH at 50° C. for 1 day, and the crystal form was unchanged.
The reaction solution in the step 4 of Example 1 was poured into water, extracted with ethyl acetate, dried and concentrated to retain a small amount of ethyl acetate, 1N hydrochloric acid was added and stirred for 1 h, filtered, the filter cake was washed with ethanol and then filtered to obtain a solid product which was the crystal form IV of free base was obtained. The X-ray powder diffraction pattern is shown in FIG. 12A (the […] has been marked), the DSC/TGA/DVS patterns are shown in FIGS. 12B, 12C and 12D. […] The sample was shaken in ACE at 50° C. for 1 day, and the crystal form was unchanged. […]

[3] = Hygroscopicity experiment (DVS); type: physicochemical
From the text: The Dynamic Vapor Sorption (DVS) curve was acquired on the DVS Intrinsic of Surface Measurement Systems.
The DVS results for crystal forms A, D, E-3 and F are shown in FIG. 1E, FIG. 4F, FIG. 7E and FIG. 8E, respectively.

Sequence of hNav1.7 (Q15858 whole entry): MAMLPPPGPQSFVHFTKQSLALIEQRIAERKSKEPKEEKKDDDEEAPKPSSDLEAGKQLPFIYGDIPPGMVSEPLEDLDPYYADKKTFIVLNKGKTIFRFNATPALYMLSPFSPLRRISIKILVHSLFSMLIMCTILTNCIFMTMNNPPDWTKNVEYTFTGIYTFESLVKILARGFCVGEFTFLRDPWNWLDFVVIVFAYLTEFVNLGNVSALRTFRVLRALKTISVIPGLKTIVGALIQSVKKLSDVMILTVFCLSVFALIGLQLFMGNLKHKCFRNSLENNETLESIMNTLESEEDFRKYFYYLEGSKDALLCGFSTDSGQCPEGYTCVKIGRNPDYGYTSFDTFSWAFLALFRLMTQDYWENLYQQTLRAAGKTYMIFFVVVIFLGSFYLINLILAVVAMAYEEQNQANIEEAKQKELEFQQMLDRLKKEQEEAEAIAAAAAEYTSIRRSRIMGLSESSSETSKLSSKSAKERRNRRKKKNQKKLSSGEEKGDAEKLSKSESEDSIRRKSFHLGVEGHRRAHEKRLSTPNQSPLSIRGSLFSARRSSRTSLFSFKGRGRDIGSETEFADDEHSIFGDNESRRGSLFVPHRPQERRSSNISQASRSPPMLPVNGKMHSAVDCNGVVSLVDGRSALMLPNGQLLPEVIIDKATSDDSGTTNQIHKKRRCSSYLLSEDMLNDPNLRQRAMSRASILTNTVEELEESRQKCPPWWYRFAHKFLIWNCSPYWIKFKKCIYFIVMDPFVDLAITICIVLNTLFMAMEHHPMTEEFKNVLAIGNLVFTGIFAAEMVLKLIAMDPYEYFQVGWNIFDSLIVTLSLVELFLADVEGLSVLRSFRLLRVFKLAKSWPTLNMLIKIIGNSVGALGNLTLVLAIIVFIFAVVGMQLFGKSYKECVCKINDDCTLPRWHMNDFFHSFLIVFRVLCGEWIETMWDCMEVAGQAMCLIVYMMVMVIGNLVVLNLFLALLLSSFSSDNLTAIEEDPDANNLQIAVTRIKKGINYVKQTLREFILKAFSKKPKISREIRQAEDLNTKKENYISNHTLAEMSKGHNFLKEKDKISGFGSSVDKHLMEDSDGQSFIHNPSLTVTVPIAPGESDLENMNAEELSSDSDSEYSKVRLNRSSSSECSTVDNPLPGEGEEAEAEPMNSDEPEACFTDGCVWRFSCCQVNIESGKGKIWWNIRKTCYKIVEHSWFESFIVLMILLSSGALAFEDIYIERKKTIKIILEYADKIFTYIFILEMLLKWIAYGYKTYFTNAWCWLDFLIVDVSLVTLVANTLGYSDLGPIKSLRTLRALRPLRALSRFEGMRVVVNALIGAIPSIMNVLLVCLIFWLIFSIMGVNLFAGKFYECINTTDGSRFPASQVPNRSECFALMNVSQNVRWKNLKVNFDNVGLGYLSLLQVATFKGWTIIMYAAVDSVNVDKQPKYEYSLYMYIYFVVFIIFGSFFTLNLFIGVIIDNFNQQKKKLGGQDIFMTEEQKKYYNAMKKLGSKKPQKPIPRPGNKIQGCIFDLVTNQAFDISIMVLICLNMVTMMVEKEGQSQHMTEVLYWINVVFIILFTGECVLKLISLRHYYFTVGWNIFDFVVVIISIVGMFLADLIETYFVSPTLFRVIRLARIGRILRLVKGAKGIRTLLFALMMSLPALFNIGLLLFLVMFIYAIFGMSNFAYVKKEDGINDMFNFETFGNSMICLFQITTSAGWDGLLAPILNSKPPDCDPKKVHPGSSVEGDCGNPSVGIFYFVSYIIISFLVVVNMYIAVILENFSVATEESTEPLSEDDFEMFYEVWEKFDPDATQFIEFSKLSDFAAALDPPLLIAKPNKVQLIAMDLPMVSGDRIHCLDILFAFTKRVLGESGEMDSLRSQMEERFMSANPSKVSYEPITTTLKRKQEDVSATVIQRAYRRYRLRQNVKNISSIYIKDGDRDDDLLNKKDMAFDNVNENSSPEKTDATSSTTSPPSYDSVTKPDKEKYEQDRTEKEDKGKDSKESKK

| Compound | inhibition at 1 µM (hNav1.7) | hygroscopicity (DVS curve) [3] | crystal form after heating [2] | further results |
| --- | --- | --- | --- | --- |
| O=C(NS(=O)(=O)C1CC1)c1cc(C2CC2)c(CN2CCN(Cc3cc(Cl)cc(Cl)c3)CC2)cc1F [C1] | 64.8% | – | – | inhibition at 0.1 µM (hNav1.7): 49.2% |
| CS(=O)(=O)NC(=O)c1cc(C2CC2)c(CN2CCN(Cc3ccc(Cl)c(Cl)c3)CC2)cc1F [C2] | 64% | – | – | inhibition at 0.1 µM (hNav1.7): 52% |
| O=C(NS(=O)(=O)C1CC1)c1cc(Cl)c(CN2CCN(Cc3ccc(Cl)cc3)CC2)cc1F [C6] | 67.2% | – | – | – |
| CS(=O)(=O)NC(=O)c1cc(Cl)c(CN2CCN(c3ccc(C4CC4)c(Cl)c3)CC2)cc1F [C12, reference compound] | – | – | – | Clearance ratio [1]: 78.28 mL/min/kg |
| Cc1cc(N2CCN(Cc3cc(F)c(C(=O)NS(C)(=O)=O)cc3Cl)CC2)ccc1Cl [C13, reference compound] | – | – | – | Clearance ratio [1]: 138.91 mL/min/kg |
| Cc1cc(N2CCN(Cc3cc(F)c(C(=O)NS(=O)(=O)C4CC4)cc3Cl)CC2)ccc1Cl [crystal form III, 5-chloro-4-((4-(4-chloro-3-methylphenyl)piperazin-1-yl)methyl)-N-(cyclopropylsulfonyl)-2-fluorobenzamide] | – | slightly hygroscopic | – | stability of the crystal form (assessment in words) [2]: metastable crystal form; crystal form after shaking of mixed forms [2]: converted into crystal form I; crystal form after shaking ([2]; shaken in ACE and MeOH at 50° C. for 1 day): unchanged |
| Cc1cc(N2CCN(Cc3cc(F)c(C(=O)NS(=O)(=O)C4CC4)cc3Cl)CC2)ccc1Cl [crystal form IV, 5-chloro-4-((4-(4-chloro-3-methylphenyl)piperazin-1-yl)methyl)-N-(cyclopropylsulfonyl)-2-fluorobenzamide] | – | slightly hygroscopic | – | stability of the crystal form (assessment in words) [2]: metastable crystal form; crystal form after shaking of mixed forms [2]: converted into crystal form I; crystal form after shaking ([2]; shaken in ACE at 50° C. for 1 day): unchanged |
| Cc1cc(N2CCN(Cc3cc(F)c(C(=O)NS(=O)(=O)C4CC4)cc3Cl)CC2)ccc1Cl [crystal form V, 5-chloro-4-((4-(4-chloro-3-methylphenyl)piperazin-1-yl)methyl)-N-(cyclopropylsulfonyl)-2-fluorobenzamide] | – | slightly hygroscopic | converted into crystal form I | – |
| Cc1cc(N2CCN(Cc3cc(F)c(C(=O)NS(=O)(=O)C4CC4)cc3Cl)CC2)ccc1Cl [crystal form VI, 5-chloro-4-((4-(4-chloro-3-methylphenyl)piperazin-1-yl)methyl)-N-(cyclopropylsulfonyl)-2-fluorobenzamide] | – | slightly hygroscopic | converted into crystal form I | – |
| Cc1cc(N2CCN(Cc3cc(F)c(C(=O)NS(=O)(=O)C4CC4)cc3Cl)CC2)ccc1Cl [crystal form VII, 5-chloro-4-((4-(4-chloro-3-methylphenyl)piperazin-1-yl)methyl)-N-(cyclopropylsulfonyl)-2-fluorobenzamide] | – | slightly hygroscopic | converted into crystal form I | – |
